We go through 19 compounds from PubChem BioAssay AID248 (DTP/NCI, 2004).

In this assay the test system is L1210 leukemia ip in BDF1 mice, survival T/C. Nature of the assay: NCI In Vivo Anticancer Drug Screen. Data for tumor model L1210 Leukemia (intraperitoneal) in B6D2F1 (BDF1) mice. The settings on record: endpoint: mean survival time, higher = longer survival. The method in brief:
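Read-out is survival time, reported as the treated-group measurement over the vehicle-control measurement.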

Setting [1] is: dose: 100.0 mg/kg/injection, schedule: Q01DX009 (ip), vehicle: saline with Tween-80.
[2] abbreviates: dose: 100.0 mg/kg/injection, schedule: Q04DX003 (ip), vehicle: saline with Tween-80.
Setting [3] is: dose: 200.0 mg/kg/injection, schedule: Q01DX009 (ip), vehicle: saline with Tween-80.
The mark [4] stands for this setting: dose: 200.0 mg/kg/injection, schedule: Q04DX003 (ip), vehicle: saline with Tween-80.
[5] abbreviates: dose: 400.0 mg/kg/injection, schedule: Q01DX009 (ip), vehicle: saline with Tween-80.
Where [6] appears, read: dose: 400.0 mg/kg/injection, schedule: Q04DX003 (ip), vehicle: saline with Tween-80.
Where [7] appears, read: dose: 100.0 mg/kg/injection, schedule: Q01DX001 (ip), vehicle: saline with Tween-80.
[8] abbreviates: dose: 200.0 mg/kg/injection, schedule: Q01DX001 (ip), vehicle: saline with Tween-80.
[9] abbreviates: dose: 100.0 mg/kg/injection, schedule: Q04DX002 (ip), vehicle: Klucel (hydroxypropylcellulose) (HPC).
Setting [10] is: dose: 200.0 mg/kg/injection, schedule: Q04DX002 (ip), vehicle: Klucel (hydroxypropylcellulose) (HPC).

Where “and” joins values, the source holds several entries; their conditions need not be identical. Equal values may be shown once. Inconclusive results and toxic doses are left out.

With `Cc1nc2cc(N=Cc3ccc(N(CCCl)CCCl)cc3)ccc2n1C`, the T/C runs as follows: (dose: 68.8 mg/kg/injection, schedule: Q04DX002 (ip), vehicle: Klucel (hydroxypropylcellulose) (HPC)) 104 % of control; (dose: 137.5 mg/kg/injection, schedule: Q04DX002 (ip), vehicle: Klucel (hydroxypropylcellulose) (HPC)) 104 % of control; (dose: 275.0 mg/kg/injection, schedule: Q04DX002 (ip), vehicle: Klucel (hydroxypropylcellulose) (HPC)) 104 % of control.

As for `Cc1ccc(N2C(=O)C=C(c3ccccc3)C2=O)cc1`, the T/C reads like this: (dose: 75.0 mg/kg/injection, schedule: Q04DX003 (ip), vehicle: Klucel (hydroxypropylcellulose) (HPC)) 104 % of control; (dose: 150.0 mg/kg/injection, schedule: Q04DX003 (ip), vehicle: Klucel (hydroxypropylcellulose) (HPC)) 105 % of control; (dose: 300.0 mg/kg/injection, schedule: Q04DX003 (ip), vehicle: Klucel (hydroxypropylcellulose) (HPC)) 104 % of control.

As to `O=C(C1=CCCCC1)c1ccccc1`, the T/C (dose: 75.0 mg/kg/injection, schedule: Q04DX002 (ip), vehicle: saline with Tween-80) was 108 % of control; the T/C (dose: 150.0 mg/kg/injection, schedule: Q04DX002 (ip), vehicle: saline with Tween-80) is 97 % of control; the T/C (dose: 300.0 mg/kg/injection, schedule: Q04DX002 (ip), vehicle: saline with Tween-80) is 114 % of control.

Turning to `Cc1cc(C(C)(C)c2cc(C)c(O)c(C)c2)cc(C)c1O`, the T/C was 95 % of control under setting [1]; 105 % of control under setting [2]; 93 % of control under setting [3]; 102 % of control under setting [4]; 97 % of control under setting [5]; 96 % of control under setting [6].

On to `N#Cc1ccc(Cc2ccc(C#N)cc2)cc1`, for which the T/C runs as follows: under setting [1], 95 % of control; under setting [2], 95 % of control; under setting [3], 97 % of control; under setting [4], 101 % of control; under setting [5], 100 % of control; under setting [6], 106 % of control.

On to `CCCOC(=O)N(CC)C(=NCC)c1ccc(NC(=O)c2ccc(C(=O)Nc3ccc(C(=NCC)N(CC)C(=O)OCCC)cc3)cc2)cc1`, for which the T/C (dose: 2.5 mg/kg/injection, schedule: Q01DX015 (ip), vehicle: methylcellulose (MC)) is 95 % of control; the T/C (dose: 5.0 mg/kg/injection, schedule: Q01DX015 (ip), vehicle: methylcellulose (MC)) was 101 % of control; the T/C (dose: 10.0 mg/kg/injection, schedule: Q01DX015 (ip), vehicle: methylcellulose (MC)) is 101 % of control; the T/C (dose: 20.0 mg/kg/injection, schedule: Q01DX015 (ip), vehicle: methylcellulose (MC)) is 109 % of control; the T/C (dose: 37.5 mg/kg/injection, schedule: Q01DX015 (ip), vehicle: methylcellulose (MC)) was 112 % of control; the T/C (dose: 75.0 mg/kg/injection, schedule: Q01DX015 (ip), vehicle: methylcellulose (MC)) was 90 % of control. Also, the T/C (dose: 150.0 mg/kg/injection, schedule: Q01DX015 (ip), vehicle: methylcellulose (MC)) is 92 % of control and the T/C (dose: 300.0 mg/kg/injection, schedule: Q01DX015 (ip), vehicle: methylcellulose (MC)) is 93 % of control.

Consider `Nc1[nH][nH]c(=O)c1N`, for which the T/C is 117 % of control (dose: 50.0 mg/kg/injection, schedule: Q01DX009 (ip), vehicle: Klucel (hydroxypropylcellulose) (HPC)); 100 % of control (dose: 100.0 mg/kg/injection, schedule: Q01DX009 (ip), vehicle: Klucel (hydroxypropylcellulose) (HPC)); 100 % of control (dose: 200.0 mg/kg/injection, schedule: Q01DX009 (ip), vehicle: Klucel (hydroxypropylcellulose) (HPC)).

As to `NC(=O)C(O)c1ccccc1` (stereo not given), the T/C by setting is: (dose: 100.0 mg/kg/injection, schedule: Q04DX003 (ip), vehicle: saline) 96 % of control; (dose: 200.0 mg/kg/injection, schedule: Q04DX003 (ip), vehicle: saline) 94 % of control; (dose: 400.0 mg/kg/injection, schedule: Q04DX003 (ip), vehicle: saline) 100 % of control.

Turning to `O=C(O)CCCCCN1C(=O)c2cccc([N+](=O)[O-])c2C1=O`, the T/C runs as follows: under setting [7], 110 % of control; under setting [8], 109 % of control.

Consider `C=C(Cl)CN(CC)CCO`, for which the T/C runs as follows: under setting [2], 98 % of control; under setting [4], 102 % of control; under setting [6], 108 % of control.

On to `CN=C(c1ccc(NC(=O)c2cc(C(=O)Nc3ccc(C(=NC)N(C)C)cc3)cc([N+](=O)[O-])c2)cc1)N(C)C`, for which the T/C (dose: 1.88 mg/kg/injection, schedule: Q01DX Z (ip), vehicle: saline) is 100 % of control; the T/C (dose: 3.75 mg/kg/injection, schedule: Q01DX Z (ip), vehicle: saline) is 100 % of control; the T/C (dose: 7.5 mg/kg/injection, schedule: Q01DX Z (ip), vehicle: saline) is 98 % of control.

Turning to `CCCCCCCCCCP(=S)(CCCC)CCCC`, the T/C was 98 % of control (dose: 100.0 mg/kg/injection, schedule: Q04DX003 (ip), vehicle: Klucel (hydroxypropylcellulose) (HPC)); 101 % of control (dose: 200.0 mg/kg/injection, schedule: Q04DX003 (ip), vehicle: Klucel (hydroxypropylcellulose) (HPC)); 104 % of control (dose: 400.0 mg/kg/injection, schedule: Q04DX003 (ip), vehicle: Klucel (hydroxypropylcellulose) (HPC)).

With `O=C(O)c1cc(Br)cc(Br)c1O`, the T/C is 123 % of control (dose: 100.0 mg/kg/injection, schedule: Q01DX001 (ip), vehicle: saline); 91 % of control (dose: 100.0 mg/kg/injection, schedule: Q04DX002 (ip), vehicle: saline with Tween-80); 105 % of control (dose: 200.0 mg/kg/injection, schedule: Q01DX001 (ip), vehicle: saline); 100 % of control (dose: 200.0 mg/kg/injection, schedule: Q04DX002 (ip), vehicle: saline with Tween-80); 109 % of control (dose: 400.0 mg/kg/injection, schedule: Q01DX001 (ip), vehicle: saline); 88 % of control (dose: 400.0 mg/kg/injection, schedule: Q04DX002 (ip), vehicle: saline with Tween-80).

In the case of `O=C(O)c1cc(Br)cc(Cl)c1Br`, the T/C under setting [9] was 96 % of control and the T/C under setting [10] is 96 % of control.

On to `CN=C(NC)c1ccc(NC(=O)c2ccc(C(=O)Nc3ccc(C(=NC)NC)cc3)c(N)c2)cc1`, for which the T/C (dose: 0.28 mg/kg/injection, schedule: Q01DX Z (ip), vehicle: water) is 98 % of control; the T/C (dose: 0.56 mg/kg/injection, schedule: Q01DX Z (ip), vehicle: water) is 93 % of control; the T/C (dose: 1.12 mg/kg/injection, schedule: Q01DX Z (ip), vehicle: water) is 170 % of control; the T/C (dose: 2.25 mg/kg/injection, schedule: Q01DX Z (ip), vehicle: water) is 157 % of control; the T/C (dose: 4.5 mg/kg/injection, schedule: Q01DX Z (ip), vehicle: carboxymethylcellulose (CMC)) is 180 % of control; the T/C (dose: 9.0 mg/kg/injection, schedule: Q01DX Z (ip), vehicle: carboxymethylcellulose (CMC)) is 159 % of control. Further, the T/C reads like this: (dose: 36.0 mg/kg/injection, schedule: Q01DX Z (ip), vehicle: carboxymethylcellulose (CMC)) 117 % of control; (dose: 50.0 mg/kg/injection, schedule: Q01DX Z (oral), vehicle: water) 102 % of control; (dose: 100.0 mg/kg/injection, schedule: Q01DX Z (oral), vehicle: water) 105 % of control; (dose: 200.0 mg/kg/injection, schedule: Q01DX Z (oral), vehicle: water) 103 % of control; (dose: 400.0 mg/kg/injection, schedule: Q01DX Z (oral), vehicle: water) 103 % of control.

As for `C1COC(C2OCCO2)C1` (stereo not given), the T/C is 103 % of control (dose: 100.0 mg/kg/injection, schedule: Q01DX009 (ip), vehicle: saline); 90 % of control (dose: 200.0 mg/kg/injection, schedule: Q01DX009 (ip), vehicle: saline); 95 % of control (dose: 400.0 mg/kg/injection, schedule: Q01DX009 (ip), vehicle: saline).

Take `CC1=C(Br)C(=O)C(Br)=C(Br)C1=O`: the T/C (dose: 100.0 mg/kg/injection, schedule: Q04DX003 (ip), vehicle: acetone) was 96 % of control.

On to `CCCCCSc1nccc(N)n1`, for which the T/C by setting is: under setting [7], 97 % of control; under setting [8], 103 % of control.

For the compound `CCOC(=O)c1cccnc1NC(=O)c1ccccc1`, the T/C (dose: 50.0 mg/kg/injection, schedule: Q04DX002 (ip), vehicle: Klucel (hydroxypropylcellulose) (HPC)) is 97 % of control; the T/C under setting [9] was 97 % of control and 103 % of control; the T/C under setting [10] is 100 % of control and 101 % of control; the T/C (dose: 800.0 mg/kg/injection, schedule: Q04DX002 (ip), vehicle: Klucel (hydroxypropylcellulose) (HPC)) is 105 % of control.
